Assay results as given in patent EP0298466A2, “Substituted alkene carboxylic acid amides and derivatives” (F. HOFFMANN-LA ROCHE AG, priority 1987, dated 1989).

Key:
[1] = target: T1, Thromboxane Synthase (TXA₂ syn.) (Homo sapiens, UniProt P24557); experiment: TXA₂ Synthesis Inhibition (microsomal fractions from human platelets); assay type: biochemical; settings: human platelet microsomes, ¹⁴C-PGH₂ 10µM, 22° for 2 minutes; read-out: Inhibition of TXA₂ Synthetase IC₅₀
T1 construct: using microsomal fractions from human platelets as enzyme source; from tissue; host or cells: microsomal fraction of human platelets
T1 sequence (P24557 1-533): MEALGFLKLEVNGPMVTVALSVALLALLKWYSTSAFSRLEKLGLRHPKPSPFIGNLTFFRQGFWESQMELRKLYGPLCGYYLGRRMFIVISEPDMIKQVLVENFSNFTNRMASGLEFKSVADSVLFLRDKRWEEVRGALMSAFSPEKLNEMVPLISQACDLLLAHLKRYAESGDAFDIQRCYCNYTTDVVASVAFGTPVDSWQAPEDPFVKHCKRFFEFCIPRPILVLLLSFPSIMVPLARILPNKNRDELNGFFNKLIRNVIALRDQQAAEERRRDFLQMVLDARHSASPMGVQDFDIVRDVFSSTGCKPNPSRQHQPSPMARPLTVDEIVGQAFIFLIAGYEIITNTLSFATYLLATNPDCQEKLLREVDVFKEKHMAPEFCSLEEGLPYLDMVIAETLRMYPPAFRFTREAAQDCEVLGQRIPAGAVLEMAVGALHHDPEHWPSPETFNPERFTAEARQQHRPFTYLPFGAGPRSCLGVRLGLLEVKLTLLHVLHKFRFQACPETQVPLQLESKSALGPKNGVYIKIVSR
Protocol: Thromboxane Synthase (TXA₂ syn.) inhibitory activity is measured by following the conversion of […] using microsomal fractions from human platelets as enzyme source. In the aqueous incubation medium, the TXA₂ decomposes rapidly into TXB₂. The amount of TXA₂ syn, is adjusted so that under the conditions of the assay approximately 80-90% of the substrate, PGH₂, is converted to product in control tubes. To prepare ¹⁴C-PGH₂, ¹⁴C-AA(50-60mCi/mmole) is incubated with sheep seminal vesicular gland microsomes for 1.5 min, at 37° and then the ¹⁴C-PGH₂ is extracted with diethylether, purified on columns of Sephadex LH-20 or silicic acid, and stored in acetone at -70°C. Incubations are done as follows, Sufficient ¹⁴C-PGH₂ to yield a final substrate concentration of 10µM (about 30,000 cpm) is added to the incubation tubes and then the acetone is removed under nitrogen. The tubes are placed in an ice bath and then 215 µl of ice cold phosphate buffered saline, 10 µl of ethanol (control) or of test drug in ethanol and 25 µl of the microsomal suspension are added with mixing in that order as rapidly as possible. The tubes are incubated at 22° for 2 minutes, the reaction is stopped and then the radioactive products and the unconverted PGH₂ are extracted and analyzed by thin layer chromatography. The amount of ¹⁴C-PGH₂ converted to products is analyzed by thin layer chromatography. The amount of ¹⁴C-PGH₂ converted to products was used as a measure of TXA₂ synthase activity. Inhibitors were tested initially at a concentration of 100 µM. IC₅₀ values were calculated by linear regression analysis of successive 10 fold dilutions of the test compound concentration.

[2] = target: T2, PAF Binding (Canis lupus familiaris, UniProt A0A8I3NSH0); experiment: PAF binding assay (³H-PAF, dog platelets); settings: washed dog platelets (2 x 10⁷ platelets), 10 minutes at room temperature, read-out: Inhibition of PAF Binding IC₅₀
T2 construct: from tissue; host or cells: washed platelets from dog blood
T2 sequence (A0A8I3NSH0 1-343): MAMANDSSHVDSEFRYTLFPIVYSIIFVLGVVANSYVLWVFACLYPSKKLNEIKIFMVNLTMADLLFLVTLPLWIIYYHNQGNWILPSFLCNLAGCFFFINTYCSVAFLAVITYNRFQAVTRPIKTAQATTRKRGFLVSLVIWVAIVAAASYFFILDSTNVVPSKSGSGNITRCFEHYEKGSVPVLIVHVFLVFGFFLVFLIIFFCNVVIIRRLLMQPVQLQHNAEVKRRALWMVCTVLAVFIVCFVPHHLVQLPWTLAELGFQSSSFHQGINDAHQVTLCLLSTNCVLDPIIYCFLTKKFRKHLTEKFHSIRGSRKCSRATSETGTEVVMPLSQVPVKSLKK
Protocol: The binding assay was done in 400 µl polyethylene microcentrifuge tubes (Beckman) containing 50 µl of an oil mixture of 2 parts of Siliconol AR200 (Serva) and 1 part of Silicone Fluid (Arthur H. Thomas). Buffer, standards, or analogs (150 µl total volume) were added to the tubes. Radiolabelled ³H-PAF (50 µl) was then added to the tubes. The reaction was started by the addition of 50 µl of dog platelets (2 x 10⁷ platelets). The tubes were capped, inverted several times to mix, and incubated for 10 minutes at room temperature. The platelets were separated from the incubation mixture by centrifuging 1 minute in a Beckman Microfuge B centrifuge. The tip of the tubes were cut off, and the platelets were washed out of the tips with 200 µl of 50% methanol (Burdick and Jackson). Aquasol (NEN, 10 ml) was added and the radioactivity in the samples was determined using an LS 8100 Beckman liquid scintillation counter linked to a Techtran tape recorder. Data was processed through an in-house computer system. Alternatively, radioactivity was determined using a Searle Mark III liquid scintillation counter linked to a Iso-Data microprocessor.
Blood was collected from anesthesized or unanesthesized dogs into 50 ml plastic centrifuge tubes containing 3.8% sodium citrate as the anticoagulant (1 volume of citrate/9 volumes of blood). The red cells were removed by centrifugation for 15 minutes at 600 rpm (100-125 g) at room temperature. An aliquot of the supernatant platelet rich plasma (PRP) was saved for cell counting and the remainder was acidified to pH 6.5 with 0.15 M citric acid. The platelet pellet was obtained after a 10 minute centrifugation at 2000 rpm (1000 g) at room temperature. Washed platelets were prepared by resuspending the platelet pellet once with PBS containing 1 mM of EDTA, centrifuging as noted, and then resuspending the platelets in 0.1% of BSA/PBS. An aliquot of the washed platelets was counted. Platelets used for binding assays were diluted to 2 x 10⁷ platelets/assay tube (4 x 10⁸ platelets/ml). Platelet counting was done using a Royco Cell-Crit 921.

[3] = test system: PAF Induced Bronchoconstriction; experiment: PAF Induced Bronchoconstriction Assay; assay type: in vivo, guinea pigs; settings: Cavia porcellus; 1mg/Kg iv, 1 minute pretreatment, guinea pig, PAF challenge 1.0µg/kg intravenous; percent inhibition, spread = standard error of the mean
Protocol: Male guinea pigs (Hartley Strain, 400-500 g) were anesthetized with urethane (2 g/kg, i.p.). Each animals' trachea was cannulated and the guinea pigs were respirated using a Harvard small animal rodent respirator (3.0 cc stroke volume, 40 breaths per min.). Tracheal pressure was recorded from a cannula inserted in the trachea and connected to a Statham pressure Transducer.
The jugular vein was cannulated for administering compounds. Spontaneous breathing was arrested with succinylcholine (1.2 mg/kg, i.v.) administered 2 minutes prior to intravenous injection of platelet activating factor (PAF).
For the intravenous testing, the guinea pig is given a 5-minute pretreatment with propranolol at a dose of 0.1 mg/kg intravenously. The test compound is administered with a 1 minute pretreatment prior to intravenous challenge with PAF. The animal is then challenged with a 1.0µg/kg intravenous dose of PAF and the change in tracheal pressure is measured.
The change in tracheal pressure is determined by subtracting the steady state baseline achieved after administration of succinylcholine from the peak bronchoconstriction seen after challenge with PAF. The mean is calculated for each test compound and compared to the mean of the control animals to give the percent inhibition of bronchoconstriction. The standard error is calculated as the standard error of the mean.

Structure (SMILES)	IC50 [1] [nM]	IC50 [2] [nM]	inhibition in vivo at 1 mg/kg [3] [%]
O=C(C=C(c1ccccc1)c1ccccc1)NCCCCc1cccnc1 [3,3-Diphenyl-N-[4-(3-pyridinyl)butyl]-2-propenamide]	100 to 1000	–	–
O=C(CC=C(c1ccccc1)c1ccccc1)NCCCCc1cccnc1 [4,4-Diphenyl-N-[4-(3-pyridinyl)butyl]-3-butenamide]	1000	–	–
O=C(CCC=C(c1ccccc1)c1ccccc1)NCCCCc1cccnc1 [5,5-Diphenyl-N-[4-(3-pyridinyl)butyl]-4-pentenamide]	100 to 1000	–	–
O=C(CCC=C(c1ccc(F)cc1)c1ccc(F)cc1)NCCCCc1cccnc1 [5,5-bis(4-fluorophenyl)-N-[4-(3-pyridinyl)butyl]-4-pentenamide]	1000 to 10000	–	–
COc1ccc(C(=CCCC(=O)NCCCCc2cccnc2)c2ccc(OC)cc2)cc1 [5,5-bis(4-methoxyphenyl)-N-[4-(3-pyridinyl)butyl]-4-pentenamide]	1000 to 10000	–	–
O=C(CCCC=C(c1ccccc1)c1ccccc1)NCCCCc1cccnc1 [6,6-Diphenyl-N-[4-(3-pyridinyl)butyl]-5-hexenamide]	100	–	–
O=C(CCCCC=C(c1ccccc1)c1ccccc1)NCCCCc1cccnc1 [7,7-Diphenyl-N-[4-(3-pyridinyl)butyl]-6-heptenamide]	100 to 10000	–	–
O=C(CCCCCC=C(c1ccccc1)c1ccccc1)NCCCCc1cccnc1 [8,8-Diphenyl-N-[4-(3-pyridinyl)butyl]-7-octenamide]	100 to 1000	–	–
O=C(CCCCCCC=C(c1ccccc1)c1ccccc1)NCCCCc1cccnc1 [9,9-Diphenyl-N-[4-(3-pyridinyl)butyl]-8-nonenamide]	10 to 100	–	–
COc1cccc(-c2c(/C=C/C(=O)NCCCCc3cccnc3)ccc3ccc(OC)cc23)c1 [(E)-3-[7-methoxy-1-(3-methoxyphenyl)-2-naphthalenyl]-N-[4-(3-pyridinyl)butyl]-2-propenamide]	–	8	62
CCCCC1=C(/C=C/C(=O)N[C@H](C)CCCc2cccnc2)CCc2cc(OC)ccc21 [[R-(E)]-3-(1-Butyl-3,4-dihydro-6-methoxy-2-naphthalenyl)-N-[1-methyl-4-(3-pyridinyl)butyl]-2-propenamide]	–	–	94 ± 2
CCCCc1c(/C=C/C(=O)N[C@H](C)CCCc2cccnc2)cc(OC)c2ccc(OC)cc12 [[R-(E)]-3-(1-Butyl-4,7-dimethoxy-2-naphthalenyl)-N-[1-methyl-4-(3-pyridinyl)butyl]-2-propenamide]	–	3	80
CCCCc1c(/C=C/C(=O)N[C@H](C)CCCc2cccnc2)cc(OC)c2ccccc12 [[R-(E)]-3-(1-Butyl-4-methoxy-2-naphthalenyl)-N-[1-methyl-4-(3-pyridinyl)butyl]-2-propenamide]	–	1	90
CCCCc1c(/C=C/C(=O)N[C@H](C)CCCc2cccnc2)ccc2c(OC)cccc12 [[R-(E)]-3-(1-Butyl-5-methoxy-2-naphthalenyl)-N-[1-methyl-4-(3-pyridinyl)butyl]-2-propenamide]	–	6	50
CCCCc1c(/C=C/C(=O)N[C@H](C)CCCc2cccnc2)ccc2cc(OC)ccc12 [[R-(E)]-3-(1-Butyl-6-methoxy-2-naphthalenyl)-N-[1-methyl-4-(3-pyridinyl)butyl]-2-propenamide]	–	7	95 ± 1
CCCCc1c(/C=C/C(=O)N[C@H](C)CCCc2cccnc2)ccc2ccc(OC)cc12 [[R-(E)]-3-(1-Butyl-7-methoxy-2-naphthalenyl)-N-[1-methyl-4-(3-pyridinyl)butyl]-2-propenamide]	–	15	–
CCCCCc1c(/C=C/C(=O)N[C@H](C)CCCc2cccnc2)sc2cc(OC)ccc12 [[R-(E)]-3-(6-Methoxy-3-pentylbenzo-[b]thien-2-yl)-N-[1-methyl-4-(3-pyridinyl)butyl]-2-propenamide]	–	24	98
CCCCCc1c(/C=C/C(=O)N[C@H](C)CCCc2cccnc2)oc2cc(OC)ccc12 [[R-(E)]-3-(6-Methoxy-3-pentylbenzofuran-2-yl)-N-[1-methyl-4-(3-pyridinyl)butyl]-2-propenamide]	–	–	89
CCCCCC1=C(/C=C/C(=O)N[C@H](C)CCCc2cccnc2)Cc2cc(OC)ccc21 [[R-(E)]-3-(6-methoxy-3-pentylindene-2-yl)-N-[1-methyl-4-(3-pyridinyl)butyl]-2-propenamide]	–	33	96
COc1ccc(C2=C(/C=C/C(=O)N[C@H](C)CCCc3cccnc3)CCc3cc(OC)ccc32)cc1 [[R-(E)]-3-[3,4-Dihydro-6-methoxy-1-(4-methoxyphenyl)-2-naphthalenyl]-N-[1-methyl-4-(3-pyridinyl)butyl]-2-propenamide]	–	30	95 ± 2
COc1ccc(-c2c(/C=C/C(=O)N[C@H](C)CCCc3cccnc3)ccc3cc(OC)ccc23)cc1 [[R-(E)]-3-[6-Methoxy-1-(4-methoxyphenyl)-2-naphthalenyl]-N-[1-methyl-4-(3-pyridinyl)butyl]-2-propenamide]	–	55	92
